Source: patent publication US20220267390A1, “MPS MODIFIED PEPTIDES AND USE THEREOF” (The Regents of the University of California, priority 2019, published 2022)
Where no end group is shown, it is not given here.

Assays:
[1] = Kinetic assay: biolayer interferometry binding to biotin-labeled PIP2; conditions: 24° C., read-out: dissociation constant
Excerpt: (§1) FIGS. 10A-10C: (FIG. 10A) The PIP2-binding motif (SEQ ID NO: 12) on the ? hosphorylation ? ite ? omain (PSD) of MARCKS. FIG. 10A discloses the MH domain as SEQ ID NO: 86). (FIG. 10B) Biolayer interferometry analysis of the binding of the MPS peptide to biotin-labeled PIP2. (FIG. 10C) PIP3 levels in IPF fibroblast cells with PBS or MPS treatment. * p<0.05 versus PBS (n=3).
Real-time binding of the peptide mimicking the phosphorylation site domain of MARCKS (MPS peptide, amino acids 151 to 175 from the wild-type MARCKS protein) to biotin-labeled PIP2 was evaluated using biolayer interferometry (BLI) on an Octet RED96 system (ForteBio) following the manufacturer's instructions. Briefly, the ligand, PIP2 labeled with biotin at the sn-1 position (1000 nM in ddH2O), was immobilized on Super Streptavidin (SSA) biosensors for 10 minutes. A binding assay was performed with the MPS analyte at various concentrations from 0 to 1000 nM in ddH2O. Association and dissociation were monitored for 5 minutes. Assays were performed at 24° C. Data were analyzed using Octet Data Analysis Software 7.0 (ForteBio).

[2] = tested on: phospho-MARCKS, phospho-AKT and α-SMA; assay: Western blot in lung fibroblast cells isolated from bleomycin-treated mice; assay type: cell-based; conditions: 100 μM, 48 hours, fibroblasts from bleomycin-treated mice
Method: FIGS. 7A-7B: (FIG. 7A) Western blots analysis of phospho-MARCKS, phospho-AKT and α-SMA expression in lung fibroblast cells isolated from saline- or bleomycin-treated mice after 48 hours of treatment with control or MPS peptides (100 μM). (FIG. 7B) Effect of MPS peptide on cell viability of lung fibroblasts isolated from saline- (mFb-Saline) or bleomycin-treated (mFb-Bleomycin) mice (n=4; *, p<0.05).
MPS peptide potentially serves as an antifibrotic agent in bleomycin-induced pulmonary fibrosis. Bleomycin remains the standard agent for induction of experimental pulmonary fibrosis in animals^23. Thus, 8-week-old female C57BL/6J mice received saline or bleomycin intratracheally (33 μg in […] of saline) as previously described^23. Lung specimens from bleomycin- or saline-treated mice were collected and subjected to immunofluorescence staining. […] Next, lung fibroblast cells isolated from saline- or bleomycin-treated mice (two mice fibroblast cell lines were gifts from Dr. Sem H. Phan, University of Michigan School of Medicine, MI) were incubated with either 100 μM control or MPS peptide for 48 hours. […] The feasibility of the MPS peptide as an antifibrotic agent in a bleomycin-induced pulmonary fibrosis was tested. […] Saline- and bleomycin-exposed mice then were treated with either PBS or MPS peptide (28 mg/kg) intraperitoneally every other day. To ascertain the therapeutic effect of MPS peptide on pulmonary fibrosis, MPS was administered intraperitoneally during the “fibrotic” phase of the model. […]
Western blot analyses and the preparations of whole-cell lysates have been previously described^14, 16, 27 For whole cell lysates, cells were lysed in a lysis buffer (50 mM Tris-HCl (pH 7.4), 1% Triton X-100, 10% glycerol, 150 mM NaCl, 1 mM EDTA, 20 μg/ml leupeptin, 1 mM PMSF and 20 μg/ml aprotinin) and separated by SDS-PAGE. […] The cells were mounted onto slides and visualized using fluorescence microscopy (model Axiovert 100; Carl Zeiss, Oberkochen, Germany) or a Zeiss LSM510 laser-scanning confocal microscope image system.

[3] = tested on: bleomycin-induced pulmonary fibrosis; assay: Bleomycin-induced pulmonary fibrosis; assay type: in vivo, C57BL/6J mice; conditions: 28 mg/kg i.p. every other day, Masson's trichrome staining after 22 days
Method: FIGS. 20A and 20B show suppressive effects of MPS peptide on pulmonary fibrosis in vivo. C57BL/6 mice were intraperitoneally given either PBS, nintedanib (28 mg/kg), MPS peptide (28 mg/kg) or MPS-12042 (7 mg/kg) at the dosage of every two days after 9 days of intratracheal exposure with one shot of saline or bleomycin (33 μg in […] of saline, n=5). (FIG. 20A) Representative Masson trichrome and immunohistochemical staining of phospho-MARCKS (Ser159/163) and phospho-AKT (Ser473) (n=6). (FIG. 20B) Hydroxyproline level in the left lung of mice as described above was determined by a hydroxyproline ELISA assay (mean±SD, *p<0.05).
MPS peptide potentially serves as an antifibrotic agent in bleomycin-induced pulmonary fibrosis. Bleomycin remains the standard agent for induction of experimental pulmonary fibrosis in animals^23. Thus, 8-week-old female C57BL/6J mice received saline or bleomycin intratracheally (33 μg in […] of saline) as previously described^23. Lung specimens from bleomycin- or saline-treated mice were collected and subjected to immunofluorescence staining. […] Next, lung fibroblast cells isolated from saline- or bleomycin-treated mice (two mice fibroblast cell lines were gifts from Dr. Sem H. Phan, University of Michigan School of Medicine, MI) were incubated with either 100 μM control or MPS peptide for 48 hours. […]

PIP3 = assay: PI(3,4,5)P3 quantitation (PIP3 Mass ELISA) in IPF fibroblasts; assay type: cell-based, human; conditions: MPS-treated IPF fibroblasts vs PBS
Excerpt: as §1
Cells were harvested and precipitated by trichloroacetic acid. PIP3 lipids were extracted twice from the trichloroacetic acid precipitated fraction by methanol: chloroform (2:1). After acidification, organic-phase lipids were used for PIP3 quantitation, based on the protocol for the PIP3 Mass ELISA kit (Echelon Biosciences, Salt Lake, Utah). Briefly, the lipid extract from cultured cells was mixed with the PIP3-specific detector protein, which was then incubated in a PIP3-coated microplate for competitive binding. After several washes, the microplate was then incubated with a HRP-linked secondary detector and tetramethylbenzidine substrate for color development. To stop further color development, 2M H2SO4 solution was then added. Microplates were read at an absorbance wavelength of 450 nm. A series of different dilutions of PIP3 standards were used for establishing a standard curve for each reaction. Cellular PIP3 amounts could be estimated by comparing the absorbance in the wells with the values in the standard curve. […]

KKKKKRFSFKKSFKLSGFSFKKNKK [MPS peptide]
Kd [1]: 0.0176 µM | phospho-AKT expression [2]: decrease | phospho-MARCKS expression [2]: decrease | α-SMA expression [2]: decrease | fibroblastic lesions and deposited extracellular matrix in the lungs [3]: decreases of fibroblastic lesions and deposited extracellular matrix | PIP3 pools in whole cell lysates (PIP3): decrease
